According to ChEMBL document CHEMBL5120911, “Suncheonosides E-M and Benzothioate Derivatives from the Marine-Derived Streptomyces sp. ZSN77” (J Nat Prod, 2022):
Where a name gives a salt, the structure may show the parent alone.

The compounds below were run on PC-3 (assay: Cytotoxicity against human PC-3 cells assessed as reduction in cell viability incubated for 72 hrs by SRB assay). Conditions: PC-3, 72 h.
Type: functional, cell-based

Q: Which IC50 does the source give for `COc1cccc2c1C(=O)c1c(O)c3c(c(O)c1C2=O)C[C@@](O)(C(=O)CO)C[C@@H]3O[C@H]1C[C@H](N)[C@H](O)[C@H](C)O1` [DOXORUBICIN HYDROCHLORIDE] here?
A: The IC50 was 0.4 µM.

Q: With `CSC(=O)c1c(C(C)C)cc(O)c(C)c1O[C@@H]1O[C@H](CO)[C@@H](O)[C@H](O)[C@H]1O` as the compound, how does the IC50 read?
A: The IC50 was > 40 µM.

Q: Which IC50 does the source give for `CSC(=O)c1c(C)c(C)c(O)c(C)c1O[C@@H]1O[C@H](CO)[C@@H](O)[C@H](O)[C@H]1O` here?
A: Its IC50 is > 40 µM.

Q: With `CCc1c(C)c(O)c(C)c(O[C@@H]2O[C@H](CO)[C@@H](O)[C@H](O)[C@H]2O)c1C(=O)SC` as the compound, how does the IC50 read?
A: The IC50 was > 40 µM.

Q: How did the IC50 turn out when `COc1c(C)c(O)c(C)c(C(C)C)c1C(=O)SC` was run?
A: Its IC50 is > 40 µM.

Q: With `Cc1c(O)cc(C(C)C)c(C)c1O` as the compound, how does the IC50 read?
A: Its IC50 is > 40 µM.

Q: Which IC50 does the source give for `CCc1c(O)c(C)c(O[C@@H]2O[C@H](CO)[C@@H](O)[C@H](O)[C@H]2O)c(C(=O)SC)c1C(C)C` here?
A: Its IC50 is > 40 µM.

Q: Which IC50 does the source give for `CCc1c(C)c(O)c(C)c(O)c1C(=O)SC` here?
A: The IC50 was > 40 µM.

Q: Which IC50 does the source give for `COC(=O)c1c(O)c(C)c(O)c(C)c1C(C)C` here?
A: Its IC50 is > 40 µM.

Q: How did the IC50 turn out when `Cc1c(O)c(C)c(C(C)C)c(O[C@@H]2O[C@H](CO)[C@@H](O)[C@H](O)[C@H]2O)c1O` was run?
A: Its IC50 is 4.1 µM.

Q: For `CSC(=O)c1c(O[C@@H]2O[C@H](CO)[C@@H](O)[C@H](O)[C@H]2O)c(C)c(O)c(C)c1C(C)C`, which IC50 is on record?
A: Its IC50 is > 40 µM.

These compounds were tested on MDA-MB-231 (assay: Cytotoxicity against human MDA-MB-231 cells assessed as reduction in cell viability incubated for 72 hrs by SRB assay). Conditions: MDA-MB-231, 72 h.
Type: functional, cell-based

Q: How did the IC50 turn out when `COc1cccc2c1C(=O)c1c(O)c3c(c(O)c1C2=O)C[C@@](O)(C(=O)CO)C[C@@H]3O[C@H]1C[C@H](N)[C@H](O)[C@H](C)O1` [DOXORUBICIN HYDROCHLORIDE] was run?
A: The IC50 was 0.4 µM.

Q: With `CSC(=O)c1c(C(C)C)cc(O)c(C)c1O[C@@H]1O[C@H](CO)[C@@H](O)[C@H](O)[C@H]1O` as the compound, how does the IC50 read?
A: The IC50 was > 40 µM.

Q: How did the IC50 turn out when `CSC(=O)c1c(C)c(C)c(O)c(C)c1O[C@@H]1O[C@H](CO)[C@@H](O)[C@H](O)[C@H]1O` was run?
A: The IC50 was > 40 µM.

Q: With `CCc1c(C)c(O)c(C)c(O[C@@H]2O[C@H](CO)[C@@H](O)[C@H](O)[C@H]2O)c1C(=O)SC` as the compound, how does the IC50 read?
A: The IC50 was > 40 µM.

Q: `COc1c(C)c(O)c(C)c(C(C)C)c1C(=O)SC` was tested. Which IC50 did it give?
A: Its IC50 is 36 µM.

Q: With `Cc1c(O)cc(C(C)C)c(C)c1O` as the compound, how does the IC50 read?
A: The IC50 was > 40 µM.

Q: For `CCc1c(O)c(C)c(O[C@@H]2O[C@H](CO)[C@@H](O)[C@H](O)[C@H]2O)c(C(=O)SC)c1C(C)C`, which IC50 is on record?
A: Its IC50 is > 40 µM.

Q: Which IC50 does the source give for `CCc1c(C)c(O)c(C)c(O)c1C(=O)SC` here?
A: The IC50 was > 40 µM.

Q: For `COC(=O)c1c(O)c(C)c(O)c(C)c1C(C)C`, which IC50 is on record?
A: Its IC50 is > 40 µM.

Q: With `CSC(=O)c1c(O)c(C)c(O)c(C)c1C(C)C` as the compound, how does the IC50 read?
A: Its IC50 is > 40 µM.

Q: For `CCc1c(C)c(O)c(C)c(O[C@@H]2O[C@H](COC(C)=O)[C@@H](O)[C@H](O)[C@H]2O)c1C(=O)SC`, which IC50 is on record?
A: The IC50 was 16 µM.

Q: For `Cc1c(O)c(C)c(C(C)C)c(O[C@@H]2O[C@H](CO)[C@@H](O)[C@H](O)[C@H]2O)c1O`, which IC50 is on record?
A: Its IC50 is > 40 µM.

Q: With `CSC(=O)c1c(O[C@@H]2O[C@H](CO)[C@@H](O)[C@H](O)[C@H]2O)c(C)c(OC(=O)c2c(O)c(C)c(O)c(C)c2C(C)C)c(C)c1C(C)C` as the compound, how does the IC50 read?
A: The IC50 was 11 µM.

Q: For `CSC(=O)c1c(O[C@@H]2O[C@H](COC(C)=O)[C@@H](O)[C@H](O)[C@H]2O)c(C)c(O)c(C)c1C(C)C`, which IC50 is on record?
A: The IC50 was > 40 µM.

Q: For `CSC(=O)c1c(O[C@@H]2O[C@H](CO)[C@@H](O)[C@H](O)[C@H]2O)c(C)c(O)c(C)c1C(C)C`, which IC50 is on record?
A: Its IC50 is > 40 µM.

These compounds were tested on HCT-116 (assay: Cytotoxicity against human HCT-116 cells assessed as reduction in cell viability incubated for 72 hrs by SRB assay). Conditions: HCT-116, 72 h.
Type: functional, cell-based

Q: How did the IC50 turn out when `CSC(=O)c1c(C(C)C)cc(O)c(C)c1O[C@@H]1O[C@H](CO)[C@@H](O)[C@H](O)[C@H]1O` was run?
A: The IC50 was > 40 µM.

Q: Which IC50 does the source give for `CSC(=O)c1c(C)c(C)c(O)c(C)c1O[C@@H]1O[C@H](CO)[C@@H](O)[C@H](O)[C@H]1O` here?
A: The IC50 was > 40 µM.

Q: How did the IC50 turn out when `CCc1c(C)c(O)c(C)c(O[C@@H]2O[C@H](CO)[C@@H](O)[C@H](O)[C@H]2O)c1C(=O)SC` was run?
A: Its IC50 is > 40 µM.

Q: How did the IC50 turn out when `COc1c(C)c(O)c(C)c(C(C)C)c1C(=O)SC` was run?
A: Its IC50 is > 40 µM.

Q: `Cc1c(O)cc(C(C)C)c(C)c1O` was tested. Which IC50 did it give?
A: Its IC50 is > 40 µM.

Q: With `CCc1c(O)c(C)c(O[C@@H]2O[C@H](CO)[C@@H](O)[C@H](O)[C@H]2O)c(C(=O)SC)c1C(C)C` as the compound, how does the IC50 read?
A: The IC50 was > 40 µM.

Q: How did the IC50 turn out when `CCc1c(C)c(O)c(C)c(O)c1C(=O)SC` was run?
A: Its IC50 is > 40 µM.

Q: With `COC(=O)c1c(O)c(C)c(O)c(C)c1C(C)C` as the compound, how does the IC50 read?
A: Its IC50 is 7.3 µM.

Q: `CSC(=O)c1c(O)c(C)c(O)c(C)c1C(C)C` was tested. Which IC50 did it give?
A: Its IC50 is 3.9 µM.

Q: How did the IC50 turn out when `CCc1c(C)c(O)c(C)c(O[C@@H]2O[C@H](COC(C)=O)[C@@H](O)[C@H](O)[C@H]2O)c1C(=O)SC` was run?
A: Its IC50 is > 40 µM.

Q: Which IC50 does the source give for `Cc1c(O)c(C)c(C(C)C)c(O[C@@H]2O[C@H](CO)[C@@H](O)[C@H](O)[C@H]2O)c1O` here?
A: Its IC50 is > 40 µM.

Q: `CSC(=O)c1c(O[C@@H]2O[C@H](CO)[C@@H](O)[C@H](O)[C@H]2O)c(C)c(OC(=O)c2c(O)c(C)c(O)c(C)c2C(C)C)c(C)c1C(C)C` was tested. Which IC50 did it give?
A: Its IC50 is > 40 µM.

Q: For `CSC(=O)c1c(O[C@@H]2O[C@H](COC(C)=O)[C@@H](O)[C@H](O)[C@H]2O)c(C)c(O)c(C)c1C(C)C`, which IC50 is on record?
A: The IC50 was > 40 µM.

Q: How did the IC50 turn out when `CSC(=O)c1c(O[C@@H]2O[C@H](CO)[C@@H](O)[C@H](O)[C@H]2O)c(C)c(O)c(C)c1C(C)C` was run?
A: The IC50 was > 40 µM.

The compounds below were run on BV-2 (assay: Antiinflammatory activity in mouse BV-2 cells assessed as inhibition of LPS-induced NO production pretreated for 3 hrs followed by LPS stimulation measured after 24 hrs by microplate reader assay). Conditions: dose 2.5-10 µM, time 27.0 hrs, DDE = dose-dependent effect.
Type: functional, cell-based

Q: With `CCc1c(C)c(O)c(C)c(O[C@@H]2O[C@H](CO)[C@@H](O)[C@H](O)[C@H]2O)c1C(=O)SC` as the compound, how does the Activity read?
A: Its Activity is “Dde”.

Q: Which Activity does the source give for `COc1c(C)c(O)c(C)c(C(C)C)c1C(=O)SC` here?
A: Its Activity is “Dde”.

Q: For `CSC(=O)c1c(O)c(C)c(O)c(C)c1C(C)C`, which Activity is on record?
A: The Activity was “Dde”.

Q: For `Cc1c(O)c(C)c(C(C)C)c(O[C@@H]2O[C@H](CO)[C@@H](O)[C@H](O)[C@H]2O)c1O`, which Activity is on record?
A: The Activity was “Dde”.

Q: With `CSC(=O)c1c(O[C@@H]2O[C@H](CO)[C@@H](O)[C@H](O)[C@H]2O)c(C)c(O)c(C)c1C(C)C` as the compound, how does the Activity read?
A: Its Activity is “Dde”.
